These results are taken from paper PMC9934914, “A novel class of sulphonamides potently block malaria transmission by targeting a Plasmodium vacuole membrane protein” (Disease Models & Mechanisms, 2023).

For assay [1], the target named is T1, Pfs16 (Plasmodium falciparum, UniProt Q6ZMA7).
T1 construct: native full-length protein in stage V gametocytes or their Triton X-100 lysate; 157 residues, 16 kDa, one TM domain
T1 sequence (Q6ZMA7 26-157): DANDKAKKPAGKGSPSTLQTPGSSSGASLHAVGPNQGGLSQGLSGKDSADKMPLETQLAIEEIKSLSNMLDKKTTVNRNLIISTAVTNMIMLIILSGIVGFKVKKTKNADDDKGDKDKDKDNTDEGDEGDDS
In words: CETSA melt curve with immunoblot. As to conditions: 100 µM compound. Format: biochemical.

For assay [2], the target named is T1, Pfs16. As to the kind of experiment: photoaffinity labelling of live gametocytes, pulldown, TMT LC-MS/MS and immunoblot. The class given is cell-based. As to conditions: covalent (aryl azide photo-crosslink, 254 nm); 2.5 to 10 µM probe, 37 °C.

On to `O=S(=O)(NCC1(O)CCOc2ccccc21)c1cccc(Br)c1` (single isomer, unassigned; (-)) [(−)-DDD01028076], for which, in assay [1] (pH 7.5, stage V gametocyte lysate), the Tm shift entry is listed as “A shift in the Pfs16 melting curve was also evident in the presence of (−)-DDD01028076”. As for `O=S(=O)(NCC1(O)CCOc2ccccc21)c1ccc(Br)s1` (stereo not drawn) [DDD01035881], the Tm shift entry in assay [1] (pH 7.5, activated stage V gametocyte lysate, also isothermal dose response at 78.4 °C, 1 nM to 100 µM) is “DDD01035881 treatment clearly resulted in a positive shift in the Pfs16 melting curve”. Turning to `C#Cc1ccc2c(c1)C(O)(CNS(=O)(=O)c1cccc(N=[N+]=[N-])c1)CCO2` (stereo not drawn) [compound 2, probe 2], the “photoaffinity labelling of live gametocytes, pulldown, TMT LC-MS/MS and immunobl” value in assay [2] is “a dose-dependent pulldown of Pfs16 was clearly observed”.
